Experimental data: ChEMBL document CHEMBL5385924, “Stereoselective Synthesis of Xylodonin A and 22-Hydroxyxylodonin A and Discovery of Analogues with Cytotoxic Activity” (J Nat Prod, 2024)
pIC50: −log10 of the molar value. Activity calls are given as the source filed them. No cut-off for these calls is given here.

Legend:
[1] = Selectivity index, ratio of IC50 for cytotoxicity against human HL7702 cells to IC50 for antiproliferative activity against human HepG2 cells; type: toxicity, cell-based; settings: HL7702 cells versus HepG2 cells, read-out: Ratio IC50
HepG2 [2] = experiment: Induction of apoptosis in human HepG2 cells assessed as early apoptotic cells at 20 uM measured after 48 hrs by AnnexinV-FITC/PI staining based flow cytometry (reference value: 1.21%); type: functional
HepG2 [3] = experiment: Inhibition of colony formation in human HepG2 cells assessed as relative colony formation area at 15 uM treated every 6 hrs for 24 hrs followed by culturing in fresh medium for 7 days by Giemsa staining based analysis; type: functional; parameters: scale not given: the % may be the effect or the level left
HepG2 [4] = experiment: Induction of apoptosis in human HepG2 cells assessed as necrotic cells at 20 uM measured after 48 hrs by AnnexinV-FITC/PI staining based flow cytometry (reference value: 0.19%); type: functional
Pseudomonas aeruginosa = experiment: Antibacterial activity against Pseudomonas aeruginosa assessed as inhibition of bacterial growth; type: functional, organism-based
HepG2 [5] = experiment: Induction of apoptosis in human HepG2 cells assessed as necrotic cells at 10 uM measured after 48 hrs by AnnexinV-FITC/PI staining based flow cytometry (reference value: 0.19%); type: functional
Staphylococcus aureus = experiment: Antibacterial activity against Staphylococcus aureus assessed as inhibition of bacterial growth; type: functional, organism-based
HepG2 [6] = experiment: Inhibition of colony formation in human HepG2 cells assessed as relative colony formation area at 5 uM treated every 6 hrs for 24 hrs followed by culturing in fresh medium for 7 days by Giemsa staining based analysis; type: functional; parameters: scale not given: the % may be the effect or the level left
HepG2 [7] = experiment: Inhibition of colony formation in human HepG2 cells assessed as relative colony formation area at 20 uM treated every 6 hrs for 24 hrs followed by culturing in fresh medium for 7 days by Giemsa staining based analysis; type: functional; parameters: scale not given: the % may be the effect or the level left
Escherichia coli = experiment: Antibacterial activity against Escherichia coli assessed as inhibition of bacterial growth; type: functional, organism-based
HepG2 [8] = experiment: Induction of apoptosis in human HepG2 cells assessed as viable cells at 10 uM measured after 48 hrs by AnnexinV-FITC/PI staining based flow cytometry (reference value: 95.88%); type: functional; settings: read-out: Activity
HepG2 [9] = experiment: Induction of apoptosis in human HepG2 cells assessed as late apoptotic cells at 20 uM measured after 48 hrs by AnnexinV-FITC/PI staining based flow cytometry (reference value: 2.73%); type: functional
HepG2 [10] = experiment: Antiproliferative activity against human HepG2 cells assessed as reduction in cell viability measured after 48 hrs by CCK8 assay; type: functional, cell-based; settings: HepG2, 48 h
Salmonella typhimurium = experiment: Antibacterial activity against Salmonella typhimurium assessed as inhibition of bacterial growth; type: functional, organism-based; settings: Salmonella enterica subsp. enterica serovar Typhimurium
HepG2 [11] = experiment: Induction of apoptosis in human HepG2 cells assessed as early apoptotic cells at 10 uM measured after 48 hrs by AnnexinV-FITC/PI staining based flow cytometry (reference value: 1.21%); type: functional
HepG2 [12] = experiment: Inhibition of colony formation in human HepG2 cells assessed as relative colony formation area at 10 uM treated every 6 hrs for 24 hrs followed by culturing in fresh medium for 7 days by Giemsa staining based analysis; type: functional; parameters: scale not given: the % may be the effect or the level left
Candida albicans = experiment: Antifungal activity against Candida albicans assessed as inhibition of fungal growth; type: functional, organism-based
HepG2 [13] = experiment: Induction of apoptosis in human HepG2 cells assessed as viable cells at 20 uM measured after 48 hrs by AnnexinV-FITC/PI staining based flow cytometry (reference value: 95.88%); type: functional; settings: read-out: Activity
HepG2 [14] = experiment: Antimetastatic activity against human HepG2 cells assessed as inhibition of cell migration measured after 12 to 24 hrs by scratch wound healing assay; type: functional, cell-based; settings: time 12-24 hrs
Proteus vulgaris = experiment: Antibacterial activity against Proteus vulgaris assessed as inhibition of bacterial growth; type: functional, organism-based
[15] = system: Mycolicibacterium smegmatis; experiment: Antibacterial activity against Mycobacterium smegmatis assessed as inhibition of bacterial growth; type: functional, organism-based
HepG2 [16] = experiment: Induction of apoptosis in human HepG2 cells assessed as late apoptotic cells at 10 uM measured after 48 hrs by AnnexinV-FITC/PI staining based flow cytometry (reference value: 2.73%); type: functional
[17] = Cytotoxicity against human HL7702 cells assessed as reduction in cell viability measured after 48 hrs by CCK8 assay; type: toxicity, cell-based; settings: HL7702 (L02) cells

| Compound | selectivity ratio [1] | Activity (Pseudomonas aeruginosa) | Activity (Staphylococcus aureus) | Activity (Escherichia coli) | pIC50 (HepG2 [10]) | Activity (Salmonella typhimurium) | Activity (Candida albicans) | Activity (Proteus vulgaris) | Activity [15] | IC50 at 48 h [17] [µM] | other results |
| --- | --- | --- | --- | --- | --- | --- | --- | --- | --- | --- | --- |
| CC(=O)Oc1ccc(/C=C/C(=O)O[C@H]2CC3=C(C(=O)OC3)[C@@]3(C)CCCC(C)(C)[C@H]23)cc1 | > 11.4 | inactive | inactive | inactive | 5.06 | inactive | inactive | inactive | inactive | > 100 | Activity (HepG2 [2]): 14.41%; Activity (HepG2 [3]): 5.9%; Activity (HepG2 [4]): 0.2%; Activity (HepG2 [5]): 0.27%; Activity (HepG2 [6]): 11.2%; Activity (HepG2 [7]): 2.3%; viability at 10 µM (HepG2 [8]): 91%; Activity (HepG2 [9]): 6.23%; Activity (HepG2 [11]): 1.73%; Activity (HepG2 [12]): 8.1%; viability at 20 µM (HepG2 [13]): 79.2%; Activity (HepG2 [14]): Active; Activity (HepG2 [16]): 6.96% |
| CC1(C)CCC[C@]2(C)C3=C(COC3=O)C[C@H](O)[C@@H]12 | – | inactive | inactive | inactive | < 4.30 | inactive | inactive | inactive | inactive | – | – |
| CC1(C)CCC[C@]2(C)C3=C(COC3=O)C[C@H](OC(=O)/C=C/c3ccccc3)[C@@H]12 | – | inactive | inactive | inactive | < 4.30 | inactive | inactive | inactive | inactive | – | – |
| CC1(C)CCC[C@]2(C)C3=C(COC3=O)C[C@H](OC(=O)/C=C/c3ccccc3F)[C@@H]12 | > 4.5 | inactive | inactive | inactive | 4.65 | inactive | inactive | inactive | inactive | > 100 | – |
| COc1cc([C@@H]2c3cc4c(cc3[C@@H](O[C@@H]3O[C@@H]5CO[C@@H](C)O[C@H]5[C@H](O)[C@H]3O)[C@H]3COC(=O)[C@H]23)OCO4)cc(OC)c1O [ETOPOSIDE] | 8.4 | – | – | – | 5.23 | – | – | – | – | 49.6 | – |
| CC1(C)CCC[C@]2(C)C3=C(COC3=O)C[C@H](OC(=O)/C=C/c3ccc(C(F)(F)F)cc3)[C@@H]12 | – | inactive | inactive | inactive | < 4.30 | inactive | inactive | inactive | inactive | – | – |
| CC1(C)CCC[C@]2(C)C3=C(COC3=O)C[C@H](OC(=O)/C=C/c3ccc(Cl)cc3)[C@@H]12 | – | inactive | inactive | inactive | < 4.30 | inactive | inactive | inactive | inactive | – | – |
| CC1(C)CCC[C@]2(C)C3=C(COC3=O)C[C@H](OC(=O)/C=C/c3ccc(O)cc3)[C@@H]12 | > 6.9 | inactive | inactive | inactive | 4.85 | inactive | inactive | inactive | inactive | > 100 | – |
